Read-outs that look alike come from different tables or passages of the source.
Key:
Assay in all cases: Kinase panel study
Assay type in all cases: biochemical
Conditions in all cases: for inhibition at 1 µM: 1000nM
LRRK2 = target: T1, LRRK2 (Homo sapiens, UniProt Q5S007)
T1 construct: purchased Thermo Fisher Scientific
Procedure, shortened: (§1)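 Percent inhibition of each kinase by the test compound, given at either 1 µM or 10 µM, came from a contracted panel run by ZLyte or Adapta protocol.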

IRAK4 = target: T2, IRAK4 (Homo sapiens, UniProt Q9NWZ3)
T2 construct: purchased Thermo Fisher Scientific
T2 sequence (Q9NWZ3 1-460): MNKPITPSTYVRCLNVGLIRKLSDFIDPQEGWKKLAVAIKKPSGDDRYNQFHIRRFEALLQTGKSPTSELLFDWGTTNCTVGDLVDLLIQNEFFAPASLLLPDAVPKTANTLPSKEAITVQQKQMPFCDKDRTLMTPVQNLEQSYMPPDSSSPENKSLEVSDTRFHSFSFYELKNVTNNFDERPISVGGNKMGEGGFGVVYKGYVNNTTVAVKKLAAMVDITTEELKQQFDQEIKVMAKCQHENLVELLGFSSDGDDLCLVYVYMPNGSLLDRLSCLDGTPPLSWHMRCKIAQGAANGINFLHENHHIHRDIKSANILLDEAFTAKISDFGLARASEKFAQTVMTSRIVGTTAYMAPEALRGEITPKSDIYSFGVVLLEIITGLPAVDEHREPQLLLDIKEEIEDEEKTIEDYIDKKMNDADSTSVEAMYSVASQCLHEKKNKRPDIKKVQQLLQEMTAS
Procedure, shortened: as §1

FLT3 = target: T3, FLT3 (Homo sapiens, UniProt P36888)
T3 construct: purchased Thermo Fisher Scientific
T3 sequence (P36888 27-993): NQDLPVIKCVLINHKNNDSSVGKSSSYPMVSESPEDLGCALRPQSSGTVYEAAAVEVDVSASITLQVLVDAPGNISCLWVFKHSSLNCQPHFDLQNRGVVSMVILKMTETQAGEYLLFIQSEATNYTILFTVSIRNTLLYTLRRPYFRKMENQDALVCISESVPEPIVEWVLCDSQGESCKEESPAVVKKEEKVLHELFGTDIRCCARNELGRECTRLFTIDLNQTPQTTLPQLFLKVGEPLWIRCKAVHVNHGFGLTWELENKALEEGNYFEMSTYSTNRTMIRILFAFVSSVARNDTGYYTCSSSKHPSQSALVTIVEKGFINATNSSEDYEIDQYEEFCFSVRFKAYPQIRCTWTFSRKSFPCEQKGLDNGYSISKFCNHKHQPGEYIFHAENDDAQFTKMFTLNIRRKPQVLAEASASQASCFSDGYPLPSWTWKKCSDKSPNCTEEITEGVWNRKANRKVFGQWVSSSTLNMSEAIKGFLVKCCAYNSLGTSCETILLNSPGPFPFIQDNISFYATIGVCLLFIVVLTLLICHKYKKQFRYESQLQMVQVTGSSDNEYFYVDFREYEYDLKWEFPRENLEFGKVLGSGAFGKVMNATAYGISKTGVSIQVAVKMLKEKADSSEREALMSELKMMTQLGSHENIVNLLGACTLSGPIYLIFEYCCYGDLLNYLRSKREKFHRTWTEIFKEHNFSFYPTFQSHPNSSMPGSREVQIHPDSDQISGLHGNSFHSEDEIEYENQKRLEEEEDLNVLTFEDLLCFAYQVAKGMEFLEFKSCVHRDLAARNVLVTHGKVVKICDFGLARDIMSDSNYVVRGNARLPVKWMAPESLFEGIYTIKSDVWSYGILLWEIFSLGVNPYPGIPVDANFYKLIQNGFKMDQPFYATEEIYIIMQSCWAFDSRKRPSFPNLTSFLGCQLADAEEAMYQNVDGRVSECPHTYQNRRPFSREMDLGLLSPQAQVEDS
Procedure, shortened: as §1

AKT3 (PKB gamma) = target: T4, AKT3 (PKB gamma) (Homo sapiens, UniProt Q9Y243)
T4 construct: purchased Thermo Fisher Scientific
Procedure, shortened: as §1

[1] = target: T5, PIK3CD/PIK3R1 (p11 0 delta/p85 alpha) (Homo sapiens, UniProt O00329)
T5 construct: purchased Thermo Fisher Scientific
Procedure, shortened: as §1

AKT1 (PKB alpha) = target: T6, AKT1 (PKB alpha) (Homo sapiens, UniProt P31749)
T6 construct: purchased Thermo Fisher Scientific
Procedure, shortened: as §1

DYRK1A = target: T7, DYRK1A (Homo sapiens, UniProt Q13627)
T7 construct: purchased Thermo Fisher Scientific
Procedure, shortened: as §1

[2] = target: T8, PIK3CB/PIK3R1 (p110 beta/p85 alpha) (Homo sapiens, UniProt P42338)
T8 construct: purchased Thermo Fisher Scientific
Procedure, shortened: as §1

[3] = target: T9, PIK3CA/PIK3R3 (p11 0 alpha/p55 gamma) (Homo sapiens, UniProt P42336)
T9 construct: purchased Thermo Fisher Scientific
Procedure, shortened: as §1

[4] = target: T10, PIK3CB/PIK3R2 (p11 0 beta/p85 beta) (Homo sapiens, UniProt P42338)
T10 construct: purchased Thermo Fisher Scientific
Procedure, shortened: as §1

PIK3C2A (PI3K-C2 alpha) = target: T11, PIK3C2A (PI3K-C2 alpha) (Homo sapiens, UniProt O00443)
T11 construct: purchased Thermo Fisher Scientific
Procedure, shortened: as §1

[5] = read-out: Percentage of inhibition
[6] = 10000nM, read-out: Percentage of inhibition
[7] = LRRK2, compound at 10µM, read-out: % of Inhibition
[8] = IRAK4, compound at 10µM, read-out: % of Inhibition
[9] = FLT3, compound at 10µM, read-out: % of Inhibition
[10] = AKT3 (PKB gamma), compound at 10µM, read-out: % of Inhibition
[11] = PIK3CD/PIK3R1, compound at 10µM, read-out: % of Inhibition
[12] = AKT1 (PKB alpha), compound at 10µM, read-out: % of Inhibition
[13] = DYRK1A, compound at 10µM, read-out: % of Inhibition
[14] = PIK3CB/PIK3R1, compound at 10µM, read-out: % of Inhibition
[15] = PIK3CA/PIK3R3, compound at 10µM, read-out: % of Inhibition
[16] = PIK3CB/PIK3R2, compound at 10µM, read-out: % of Inhibition
[17] = PIK3C2A (PI3K-C2 alpha), compound at 10µM, read-out: % of Inhibition

T9 sequence (P42336 whole entry): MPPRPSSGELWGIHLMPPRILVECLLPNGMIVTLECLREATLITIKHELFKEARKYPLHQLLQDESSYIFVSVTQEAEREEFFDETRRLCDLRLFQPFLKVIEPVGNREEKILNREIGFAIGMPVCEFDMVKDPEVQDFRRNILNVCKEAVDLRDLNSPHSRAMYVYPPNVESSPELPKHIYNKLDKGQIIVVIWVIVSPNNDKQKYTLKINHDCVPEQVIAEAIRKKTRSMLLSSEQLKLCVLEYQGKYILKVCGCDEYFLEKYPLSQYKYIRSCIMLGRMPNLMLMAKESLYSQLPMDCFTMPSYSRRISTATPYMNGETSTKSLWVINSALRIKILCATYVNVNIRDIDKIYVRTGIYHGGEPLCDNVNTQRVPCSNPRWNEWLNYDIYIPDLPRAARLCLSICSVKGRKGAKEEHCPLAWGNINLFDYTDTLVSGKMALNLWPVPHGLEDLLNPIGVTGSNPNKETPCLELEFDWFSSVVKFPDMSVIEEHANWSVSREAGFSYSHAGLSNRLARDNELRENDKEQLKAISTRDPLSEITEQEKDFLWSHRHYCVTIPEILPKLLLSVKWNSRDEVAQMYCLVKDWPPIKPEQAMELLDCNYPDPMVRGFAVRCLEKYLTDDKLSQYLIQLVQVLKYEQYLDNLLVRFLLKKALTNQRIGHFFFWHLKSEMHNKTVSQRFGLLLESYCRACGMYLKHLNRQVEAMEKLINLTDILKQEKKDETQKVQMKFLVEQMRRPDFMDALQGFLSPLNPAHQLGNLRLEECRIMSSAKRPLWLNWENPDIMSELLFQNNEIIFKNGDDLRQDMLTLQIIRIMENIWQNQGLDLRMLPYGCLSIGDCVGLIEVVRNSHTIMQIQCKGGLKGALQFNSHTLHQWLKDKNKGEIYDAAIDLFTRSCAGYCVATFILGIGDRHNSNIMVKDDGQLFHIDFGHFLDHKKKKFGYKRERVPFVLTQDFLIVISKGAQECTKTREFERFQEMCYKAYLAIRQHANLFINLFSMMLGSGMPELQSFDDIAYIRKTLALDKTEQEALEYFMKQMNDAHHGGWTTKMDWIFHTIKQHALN
T5 sequence (O00329 whole entry): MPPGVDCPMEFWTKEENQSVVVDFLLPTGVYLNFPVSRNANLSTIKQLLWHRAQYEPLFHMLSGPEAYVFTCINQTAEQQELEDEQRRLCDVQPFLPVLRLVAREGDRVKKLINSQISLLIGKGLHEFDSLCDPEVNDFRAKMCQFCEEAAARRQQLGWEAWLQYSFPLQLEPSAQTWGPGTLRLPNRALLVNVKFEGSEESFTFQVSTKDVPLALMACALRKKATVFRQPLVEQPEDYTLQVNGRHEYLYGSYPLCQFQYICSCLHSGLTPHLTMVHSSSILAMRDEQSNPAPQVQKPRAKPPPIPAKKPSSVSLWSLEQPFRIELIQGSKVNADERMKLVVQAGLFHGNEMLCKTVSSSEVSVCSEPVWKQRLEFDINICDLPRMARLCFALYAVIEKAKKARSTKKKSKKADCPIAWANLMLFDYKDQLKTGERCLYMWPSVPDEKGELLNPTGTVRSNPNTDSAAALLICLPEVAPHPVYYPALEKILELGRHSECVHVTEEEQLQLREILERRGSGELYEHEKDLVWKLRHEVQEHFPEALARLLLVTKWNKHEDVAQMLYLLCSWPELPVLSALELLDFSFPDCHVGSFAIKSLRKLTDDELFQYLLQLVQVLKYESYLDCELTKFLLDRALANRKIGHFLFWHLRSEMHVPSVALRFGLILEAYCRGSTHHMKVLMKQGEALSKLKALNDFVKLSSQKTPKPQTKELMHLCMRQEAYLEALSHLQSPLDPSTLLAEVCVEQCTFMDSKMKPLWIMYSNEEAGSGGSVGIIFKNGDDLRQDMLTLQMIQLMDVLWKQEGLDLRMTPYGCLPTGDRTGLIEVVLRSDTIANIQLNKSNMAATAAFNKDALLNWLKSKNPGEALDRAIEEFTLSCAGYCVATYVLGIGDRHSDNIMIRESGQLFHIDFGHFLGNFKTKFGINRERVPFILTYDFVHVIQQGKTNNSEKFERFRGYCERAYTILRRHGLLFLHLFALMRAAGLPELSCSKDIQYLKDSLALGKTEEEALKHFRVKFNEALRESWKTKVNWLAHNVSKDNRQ
T5 sequence (P27986 whole entry partner): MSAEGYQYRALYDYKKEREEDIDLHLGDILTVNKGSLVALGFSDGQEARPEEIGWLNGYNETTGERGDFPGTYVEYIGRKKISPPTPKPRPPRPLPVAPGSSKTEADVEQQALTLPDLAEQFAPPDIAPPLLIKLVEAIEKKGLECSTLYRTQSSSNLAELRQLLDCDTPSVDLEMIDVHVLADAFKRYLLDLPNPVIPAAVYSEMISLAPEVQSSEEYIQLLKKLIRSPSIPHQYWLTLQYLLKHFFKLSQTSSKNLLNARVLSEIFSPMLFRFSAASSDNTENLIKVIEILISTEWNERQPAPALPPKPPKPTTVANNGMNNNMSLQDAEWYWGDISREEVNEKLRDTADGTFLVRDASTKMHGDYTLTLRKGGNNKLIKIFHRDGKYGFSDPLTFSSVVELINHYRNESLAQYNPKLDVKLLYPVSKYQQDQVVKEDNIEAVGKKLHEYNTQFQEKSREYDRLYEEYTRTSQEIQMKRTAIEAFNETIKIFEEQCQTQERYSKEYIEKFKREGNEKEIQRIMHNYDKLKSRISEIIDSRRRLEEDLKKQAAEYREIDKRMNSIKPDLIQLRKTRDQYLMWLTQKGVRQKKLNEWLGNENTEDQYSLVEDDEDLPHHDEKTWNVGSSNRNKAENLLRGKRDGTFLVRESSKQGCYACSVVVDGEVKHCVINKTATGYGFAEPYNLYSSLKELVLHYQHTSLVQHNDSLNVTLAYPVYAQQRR
T4 sequence (Q9Y243 whole entry): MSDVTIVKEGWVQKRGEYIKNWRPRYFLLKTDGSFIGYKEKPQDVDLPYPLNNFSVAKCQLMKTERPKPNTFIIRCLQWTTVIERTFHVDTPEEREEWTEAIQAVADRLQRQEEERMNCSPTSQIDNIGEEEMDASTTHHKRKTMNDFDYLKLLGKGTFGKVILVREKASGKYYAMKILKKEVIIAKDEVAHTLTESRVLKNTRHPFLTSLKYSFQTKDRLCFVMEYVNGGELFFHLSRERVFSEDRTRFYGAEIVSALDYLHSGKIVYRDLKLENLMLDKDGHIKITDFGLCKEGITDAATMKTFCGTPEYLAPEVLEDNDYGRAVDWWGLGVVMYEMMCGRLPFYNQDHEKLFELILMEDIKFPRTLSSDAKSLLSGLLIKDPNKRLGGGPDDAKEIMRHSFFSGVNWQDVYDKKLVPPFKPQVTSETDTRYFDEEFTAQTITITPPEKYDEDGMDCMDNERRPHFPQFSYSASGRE
T8 sequence (P42338 whole entry): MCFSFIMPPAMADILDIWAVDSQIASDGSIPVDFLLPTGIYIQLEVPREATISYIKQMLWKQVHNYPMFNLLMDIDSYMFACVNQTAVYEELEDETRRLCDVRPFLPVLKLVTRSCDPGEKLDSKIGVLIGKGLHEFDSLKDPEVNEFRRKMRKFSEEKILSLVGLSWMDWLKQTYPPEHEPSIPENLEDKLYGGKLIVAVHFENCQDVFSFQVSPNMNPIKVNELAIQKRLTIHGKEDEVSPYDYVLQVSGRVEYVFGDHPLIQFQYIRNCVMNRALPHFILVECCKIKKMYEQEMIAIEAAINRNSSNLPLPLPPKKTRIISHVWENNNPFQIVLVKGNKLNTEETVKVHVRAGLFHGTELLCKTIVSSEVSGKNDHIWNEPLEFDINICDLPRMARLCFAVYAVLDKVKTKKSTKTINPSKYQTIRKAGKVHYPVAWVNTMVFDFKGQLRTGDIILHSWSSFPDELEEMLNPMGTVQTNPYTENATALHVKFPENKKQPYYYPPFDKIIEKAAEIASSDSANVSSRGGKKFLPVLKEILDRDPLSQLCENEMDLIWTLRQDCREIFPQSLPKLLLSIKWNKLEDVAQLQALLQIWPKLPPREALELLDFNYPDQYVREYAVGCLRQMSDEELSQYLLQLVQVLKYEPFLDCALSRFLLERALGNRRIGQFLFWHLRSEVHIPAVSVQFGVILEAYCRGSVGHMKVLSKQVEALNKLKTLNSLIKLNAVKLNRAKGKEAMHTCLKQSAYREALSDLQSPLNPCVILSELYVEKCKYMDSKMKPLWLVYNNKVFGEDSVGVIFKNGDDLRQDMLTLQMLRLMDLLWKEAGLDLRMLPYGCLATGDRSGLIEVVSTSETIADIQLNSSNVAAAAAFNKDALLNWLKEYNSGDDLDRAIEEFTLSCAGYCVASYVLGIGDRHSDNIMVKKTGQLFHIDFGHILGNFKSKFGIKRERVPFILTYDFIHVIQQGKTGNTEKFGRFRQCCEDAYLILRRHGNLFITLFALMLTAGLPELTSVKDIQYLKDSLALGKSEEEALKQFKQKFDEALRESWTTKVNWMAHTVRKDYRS
T8 sequence (P27986 whole entry partner): as the sequence (P27986 whole entry partner) above

COc1ccc2c(c1OC)c(=O)n1c3ccc(O)cc3c3ccnc2c31 [MW01, 5-Hydroxy-10,11-dimethoxy-9H-benzo[c]indolo[3,2,1-ij][1,5]naphthyridin-9-one]
inhibition at 1 µM (LRRK2; [5]): 83%
inhibition at 10 µM (LRRK2; [6]): 87%
inhibition at 1 µM (IRAK4; [5]): 19%
inhibition at 10 µM (IRAK4; [6]): 50%
inhibition at 1 µM (FLT3; [5]): 61%
inhibition at 10 µM (FLT3; [6]): 86%
inhibition at 1 µM (AKT3 (PKB gamma); [5]): 7%
inhibition at 10 µM (AKT3 (PKB gamma); [6]): 18%
inhibition at 1 µM [1, 5]: 79%
inhibition at 10 µM [1, 6]: 89%
inhibition at 1 µM (AKT1 (PKB alpha); [5]): 5%
inhibition at 10 µM (AKT1 (PKB alpha); [6]): 10%
inhibition at 1 µM (DYRK1A; [5]): 80%
inhibition at 10 µM (DYRK1A; [6]): 90%
inhibition at 1 µM [2, 5]: 30%
inhibition at 10 µM [2, 6]: 67%
inhibition at 1 µM [3, 5]: 92%
inhibition at 10 µM [3, 6]: 96%
inhibition at 1 µM [4, 5]: 24%
inhibition at 10 µM [4, 6]: 66%
inhibition at 1 µM (PIK3C2A (PI3K-C2 alpha); [5]): 26%
inhibition at 10 µM (PIK3C2A (PI3K-C2 alpha); [6]): 43%

COc1ccc2c(c1)c1ccnc3c4nc(OC)ccc4c(=O)n2c13 [MW01-E6, 5,15-dimethoxy-1,11,14-triazapentacyclo[10.7.1,0^2,7.0^8,^20.0^13,^18]icosa-2(7),3,5,8(20),9,11,13(18),14,16-nonaen-19-one]
inhibition at 10 µM (LRRK2; [7]): 64%
inhibition at 10 µM (IRAK4; [8]): -9%
inhibition at 10 µM (FLT3; [9]): 31%
inhibition at 10 µM (AKT3 (PKB gamma); [10]): 12%
inhibition at 10 µM [1, 11]: 34%
inhibition at 10 µM (AKT1 (PKB alpha); [12]): 6%
inhibition at 10 µM (DYRK1A; [13]): 14%
inhibition at 10 µM [2, 14]: 13%
inhibition at 10 µM [3, 15]: 10%
inhibition at 10 µM [4, 16]: 12%
inhibition at 10 µM (PIK3C2A (PI3K-C2 alpha); [17]): 26%

O=c1c2cc(O)ccc2c2nccc3c4cc(O)ccc4n1c32 [MW01-E10, 5,16-dihydroxy-1,11-diazapentacyclo[10.7.1.0^2,^7.0^8,^20.0^13,^18]icosa-2(7),3,5,8(20),9,11,13(18),14,16-nonaen-19-one]
inhibition at 10 µM (LRRK2; [7]): 86%
inhibition at 10 µM (IRAK4; [8]): -186%
inhibition at 10 µM (FLT3; [9]): 27%
inhibition at 10 µM (AKT3 (PKB gamma); [10]): 24%
inhibition at 10 µM [1, 11]: 87%
inhibition at 10 µM (AKT1 (PKB alpha); [12]): 18%
inhibition at 10 µM (DYRK1A; [13]): 56%
inhibition at 10 µM [2, 14]: 34%
inhibition at 10 µM [3, 15]: 90%
inhibition at 10 µM [4, 16]: 35%
inhibition at 10 µM (PIK3C2A (PI3K-C2 alpha); [17]): 31%

COc1ccc2c(c1)c1ccnc3c4ccnc(OC)c4c(=O)n2c13 [MW01-E14, 5,17-dimethoxy-1,11,16-triazapentacyclo[10.7.1.0^2,^7.0^8,^20.0^13,^18]icosa-2(7),3,5,8(20),9,11,13(18),14,16-nonaen-19-one]
inhibition at 10 µM (LRRK2; [7]): -4%
inhibition at 10 µM (IRAK4; [8]): -15%
inhibition at 10 µM (FLT3; [9]): 12%
inhibition at 10 µM (AKT3 (PKB gamma); [10]): 23%
inhibition at 10 µM [1, 11]: 84%
inhibition at 10 µM (AKT1 (PKB alpha); [12]): 9%
inhibition at 10 µM (DYRK1A; [13]): 12%
inhibition at 10 µM [2, 14]: 26%
inhibition at 10 µM [3, 15]: 59%
inhibition at 10 µM [4, 16]: 12%
inhibition at 10 µM (PIK3C2A (PI3K-C2 alpha); [17]): 23%

O=c1c2cnccc2c2nccc3c4cc(O)ccc4n1c32 [MW01-E18, 5-hydroxy-1,11,16-triazapentacyclo[10.7.1.0^2,^7.0^8,^20.0^13,^18]icosa-2(7),3,5,8(20),9,11,13(18),14,16-nonaen-19-one]
inhibition at 10 µM (LRRK2; [7]): 75%
inhibition at 10 µM (IRAK4; [8]): 2%
inhibition at 10 µM (FLT3; [9]): 65%
inhibition at 10 µM (AKT3 (PKB gamma); [10]): 19%
inhibition at 10 µM [1, 11]: 77%
inhibition at 10 µM (AKT1 (PKB alpha); [12]): 12%
inhibition at 10 µM (DYRK1A; [13]): 65%
inhibition at 10 µM [2, 14]: 62%
inhibition at 10 µM [3, 15]: 94%
inhibition at 10 µM [4, 16]: 63%
inhibition at 10 µM (PIK3C2A (PI3K-C2 alpha); [17]): 44%

COc1ccc2cc3c(N)nn(C(=O)c4cccc(N(C)C)c4)c3nc2c1 [MW05, (3-Amino-7-methoxypyrazolo[3,4-b]quinolin-1-yl)-[3-(dimethylamino)phenyl]methanone]
inhibition at 1 µM (LRRK2; [5]): -3%
inhibition at 10 µM (LRRK2; [6]): 5%
inhibition at 1 µM (IRAK4; [5]): 0%
inhibition at 10 µM (IRAK4; [6]): 2%
inhibition at 1 µM (FLT3; [5]): 2%
inhibition at 10 µM (FLT3; [6]): 6%
inhibition at 1 µM (AKT3 (PKB gamma); [5]): 4%
inhibition at 10 µM (AKT3 (PKB gamma); [6]): -6%
inhibition at 1 µM [1, 5]: 40%
inhibition at 10 µM [1, 6]: 77%
inhibition at 1 µM (AKT1 (PKB alpha); [5]): 3%
inhibition at 10 µM (AKT1 (PKB alpha); [6]): 3%
inhibition at 1 µM (DYRK1A; [5]): 22%
inhibition at 10 µM (DYRK1A; [6]): 60%
inhibition at 1 µM [2, 5]: 21%
inhibition at 10 µM [2, 6]: 67%
inhibition at 1 µM [3, 5]: 16%
inhibition at 10 µM [3, 6]: 63%
inhibition at 1 µM [4, 5]: 15%
inhibition at 10 µM [4, 6]: 64%
inhibition at 1 µM (PIK3C2A (PI3K-C2 alpha); [5]): -5%
inhibition at 10 µM (PIK3C2A (PI3K-C2 alpha); [6]): 1%

COc1ccc2nc3c(cc2c1)c(N)nn3C(=O)c1cccc(N(C)C)c1 [MW05-E2, 1-[3-(dimethylamino)benzoyl]-6-methoxy-1H-pyrazolo[3,4-b]quinolin-3-amine]
inhibition at 10 µM (LRRK2; [7]): 8%
inhibition at 10 µM (IRAK4; [8]): -3%
inhibition at 10 µM (FLT3; [9]): 17%
inhibition at 10 µM (AKT3 (PKB gamma); [10]): 11%
inhibition at 10 µM [1, 11]: 28%
inhibition at 10 µM (AKT1 (PKB alpha); [12]): 9%
inhibition at 10 µM (DYRK1A; [13]): 53%
inhibition at 10 µM [2, 14]: 1%
inhibition at 10 µM [3, 15]: 8%
inhibition at 10 µM [4, 16]: 7%
inhibition at 10 µM (PIK3C2A (PI3K-C2 alpha); [17]): 10%
